Laboratory results taken from US10508088B2, “Methods using HDAC11 inhibitors” (FORMA Therapeutics, Inc., priority 2016, dated 2019).

How the values were obtained:
HDAC11 = HDAC11 (Homo sapiens (Human), UniProt Q96DB2); assay: HDAC inhibition assay, electrophoretic mobility shift (Nanosyn); assay type: biochemical; details: for selectivity over HDACs 1-10: HDAC11 versus HDACs 1-10; for IC50: read-out: HDAC Biochemical IC50 HDAC11
Description: (§1) This example describes in vitro inhibition properties of exemplary HDAC11 inhibitors for various HDACs. HDAC inhibition assays were performed using an electrophoretic mobility shift assay at Nanosyn, Inc. (Santa Clara, Calif.). Full length human recombinant HDAC proteins were expressed in the baculoviral system and purified by affinity chromatography. A human recombinant HDAC3 was co-expressed with nuclear receptor corepressor (Ncor2). The following peptide substrates were used: FAM-RHKK(Ac)-NH2 for HDAC3, HDAC6 and HDAC8; FITC-H3K27(Ac)-NH2 for HDAC1, HDAC2 and HDAC10; FAM-RHKK(tri-fluor-Ac)-NH2 for HDAC4, HDAC5, HDAC7, HDAC9 and HDAC11. Reactions consisting of compound, enzyme, and substrate were performed in reaction buffer (comprised of 100 mM HEPES, pH7.5, 25 mM KCl, 0.1% bovine serum albumin, 0.01% Triton X-100) at 25° C. and quenched by the addition of termination buffer (100 mM HEPES, pH7.5, 0.01% Triton X-100, 0.05% SDS). The fluorescence intensity of the electrophoretically separated de-acetylated product and substrate peptide were measured and analyzed using the LabChip® 3000 microfluidic electrophoresis instrument (Perkin Elmer/Caliper Life Sciences). The IC50 values of inhibitors were determined by fitting the %-inhibition curves with 4 parameter dose-response model using XLfit 4 software (IDBS).

[1] = test system: H1650 side population stem-like cells (EGFR mutation); assay: Sphere formation assay with stem-like side population NSCLC cells; assay type: cell-based; details: H1650 SP cells, 0.5-5.0 μM, Day 10
Description: (§2) In order to investigate the role of HDAC11 in the self-renewal of stem-like cancer cells, sphere formation assays were conducted with NSCLC side population (SP) stem-like cells. A549 and NCI-H1650 cells were obtained from the ATCC. Asynchronously growing A549 or NCI-H1650 cells were washed once with phosphate buffered saline (PBS) and harvested using Accutase solution (Sigma Aldrich) and resuspended in DMEM-F12K medium (Gibo, Life Technologies) with 2% fetal bovine serum (FBS) at 1×10^6 cells/ml density. The cells were incubated with 4 μg/ml of Hoechst 33342 dye (Life Technologies) for 90 min at 37° C. in the presence or absence of 1 μM Fumitremorgin C (Sigma-Aldrich) which was used as a control sample to set the gate during sorting. The Hoechst stained cells were sorted using the BD FACSAria cell sorter. The sorted SP cells were plated in 96-well ultra-low adherent plate (Corning Inc) at the cell density of 1000 cells/100 μl/well in stem cell selective medium (DMEM:F12K supplemented with N2 supplement, 10 ng/mL epidermal growth factor (EGF) and 10 ng/ml basic fibroblast growth factor (bFGF) (Sigma-Aldrich) at 37° C. for 7-10 days. The spheres were observed and acquired using EVOS FL microscope system (Life Technologies Inc., USA). The numbers of spheres greater than or equal to 50 μm were counted. To study the effect of the HDAC11 inhibitors, the appropriate concentrations of the compounds were added to the wells on Day 0 and Day 5 and the image acquisition and analysis of the spheres were performed on Day 10. The sphere formation assays were performed twice with triplicates of each treatment in every assay.

[2] = test system: A549 side population stem-like cells (KRAS mutation); assay: as above; assay type: cell-based; details: A549 SP cells, 0.5-5.0 μM, Day 10
Description: as §2

HDAC4 = HDAC4 (Homo sapiens (Human), UniProt P56524); assay: HDAC inhibition assay, electrophoretic mobility shift (Nanosyn); details: read-out: HDAC Biochemical IC50 HDAC4
Chain of HDAC4 (P56524 whole entry): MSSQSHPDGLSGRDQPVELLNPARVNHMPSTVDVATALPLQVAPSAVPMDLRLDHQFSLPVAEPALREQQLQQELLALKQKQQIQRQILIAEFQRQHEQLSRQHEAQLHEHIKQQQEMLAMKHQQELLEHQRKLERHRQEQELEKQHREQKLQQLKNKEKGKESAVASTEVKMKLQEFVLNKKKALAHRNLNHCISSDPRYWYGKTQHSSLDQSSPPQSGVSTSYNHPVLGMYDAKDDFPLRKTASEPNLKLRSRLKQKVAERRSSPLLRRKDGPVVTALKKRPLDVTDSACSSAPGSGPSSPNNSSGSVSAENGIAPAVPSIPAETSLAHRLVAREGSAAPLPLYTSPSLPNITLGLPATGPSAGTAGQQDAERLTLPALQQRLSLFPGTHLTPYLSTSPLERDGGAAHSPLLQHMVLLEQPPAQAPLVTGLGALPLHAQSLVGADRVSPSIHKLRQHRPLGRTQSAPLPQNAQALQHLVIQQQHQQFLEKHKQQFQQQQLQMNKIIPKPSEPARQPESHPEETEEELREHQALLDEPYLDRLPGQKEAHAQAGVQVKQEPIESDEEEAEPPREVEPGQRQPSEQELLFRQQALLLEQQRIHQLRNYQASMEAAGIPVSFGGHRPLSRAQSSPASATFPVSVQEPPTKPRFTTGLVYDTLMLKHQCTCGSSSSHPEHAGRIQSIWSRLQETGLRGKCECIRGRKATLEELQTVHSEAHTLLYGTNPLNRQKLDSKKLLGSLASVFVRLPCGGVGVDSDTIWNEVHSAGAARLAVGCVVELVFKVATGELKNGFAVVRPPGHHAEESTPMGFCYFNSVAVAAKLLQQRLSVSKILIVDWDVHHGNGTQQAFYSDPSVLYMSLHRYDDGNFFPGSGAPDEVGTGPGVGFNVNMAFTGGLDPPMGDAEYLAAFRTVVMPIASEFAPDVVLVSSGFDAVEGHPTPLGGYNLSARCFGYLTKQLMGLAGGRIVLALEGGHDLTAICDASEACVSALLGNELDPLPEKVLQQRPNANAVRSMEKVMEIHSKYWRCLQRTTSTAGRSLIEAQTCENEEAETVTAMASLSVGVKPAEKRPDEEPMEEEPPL
Description: as §1

HDAC5 = HDAC5 (Homo sapiens (Human), UniProt Q9UQL6); assay: as above; details: read-out: HDAC Biochemical IC50 HDAC5
Chain of HDAC5 (Q9UQL6 whole entry): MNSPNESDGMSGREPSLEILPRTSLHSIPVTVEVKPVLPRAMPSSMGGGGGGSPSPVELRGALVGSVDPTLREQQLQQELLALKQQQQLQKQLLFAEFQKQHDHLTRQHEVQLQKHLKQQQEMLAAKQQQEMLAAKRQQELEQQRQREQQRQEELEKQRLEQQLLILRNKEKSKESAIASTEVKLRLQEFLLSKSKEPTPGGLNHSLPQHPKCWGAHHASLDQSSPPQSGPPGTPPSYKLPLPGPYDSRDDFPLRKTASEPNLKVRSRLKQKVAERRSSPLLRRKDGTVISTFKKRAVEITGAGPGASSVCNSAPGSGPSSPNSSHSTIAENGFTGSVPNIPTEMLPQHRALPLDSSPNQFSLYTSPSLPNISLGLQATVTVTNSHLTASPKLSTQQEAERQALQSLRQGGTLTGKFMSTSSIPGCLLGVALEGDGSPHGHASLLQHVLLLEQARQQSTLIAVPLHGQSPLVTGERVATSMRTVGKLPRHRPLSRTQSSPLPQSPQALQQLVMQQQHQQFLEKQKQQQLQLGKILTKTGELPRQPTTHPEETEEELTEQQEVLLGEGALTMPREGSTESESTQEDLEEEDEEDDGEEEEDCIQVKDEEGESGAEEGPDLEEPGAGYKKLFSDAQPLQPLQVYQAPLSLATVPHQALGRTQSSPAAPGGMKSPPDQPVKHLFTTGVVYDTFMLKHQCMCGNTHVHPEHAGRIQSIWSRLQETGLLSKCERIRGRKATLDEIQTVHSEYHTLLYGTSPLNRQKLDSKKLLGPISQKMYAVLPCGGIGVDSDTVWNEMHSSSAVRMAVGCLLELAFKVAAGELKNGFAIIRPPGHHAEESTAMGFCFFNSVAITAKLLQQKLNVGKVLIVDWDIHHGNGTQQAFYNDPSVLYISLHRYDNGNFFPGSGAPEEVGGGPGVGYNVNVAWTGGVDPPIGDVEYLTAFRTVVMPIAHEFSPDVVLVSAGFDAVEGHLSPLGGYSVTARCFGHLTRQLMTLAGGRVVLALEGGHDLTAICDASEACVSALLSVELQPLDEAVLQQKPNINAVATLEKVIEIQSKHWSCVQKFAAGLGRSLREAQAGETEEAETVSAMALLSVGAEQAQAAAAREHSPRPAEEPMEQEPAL
Description: as §1

HDAC6 = HDAC6 (Homo sapiens (Human), UniProt Q9UBN7); assay: as above; details: read-out: HDAC Biochemical IC50 HDAC6
Chain of HDAC6 (Q9UBN7 whole entry): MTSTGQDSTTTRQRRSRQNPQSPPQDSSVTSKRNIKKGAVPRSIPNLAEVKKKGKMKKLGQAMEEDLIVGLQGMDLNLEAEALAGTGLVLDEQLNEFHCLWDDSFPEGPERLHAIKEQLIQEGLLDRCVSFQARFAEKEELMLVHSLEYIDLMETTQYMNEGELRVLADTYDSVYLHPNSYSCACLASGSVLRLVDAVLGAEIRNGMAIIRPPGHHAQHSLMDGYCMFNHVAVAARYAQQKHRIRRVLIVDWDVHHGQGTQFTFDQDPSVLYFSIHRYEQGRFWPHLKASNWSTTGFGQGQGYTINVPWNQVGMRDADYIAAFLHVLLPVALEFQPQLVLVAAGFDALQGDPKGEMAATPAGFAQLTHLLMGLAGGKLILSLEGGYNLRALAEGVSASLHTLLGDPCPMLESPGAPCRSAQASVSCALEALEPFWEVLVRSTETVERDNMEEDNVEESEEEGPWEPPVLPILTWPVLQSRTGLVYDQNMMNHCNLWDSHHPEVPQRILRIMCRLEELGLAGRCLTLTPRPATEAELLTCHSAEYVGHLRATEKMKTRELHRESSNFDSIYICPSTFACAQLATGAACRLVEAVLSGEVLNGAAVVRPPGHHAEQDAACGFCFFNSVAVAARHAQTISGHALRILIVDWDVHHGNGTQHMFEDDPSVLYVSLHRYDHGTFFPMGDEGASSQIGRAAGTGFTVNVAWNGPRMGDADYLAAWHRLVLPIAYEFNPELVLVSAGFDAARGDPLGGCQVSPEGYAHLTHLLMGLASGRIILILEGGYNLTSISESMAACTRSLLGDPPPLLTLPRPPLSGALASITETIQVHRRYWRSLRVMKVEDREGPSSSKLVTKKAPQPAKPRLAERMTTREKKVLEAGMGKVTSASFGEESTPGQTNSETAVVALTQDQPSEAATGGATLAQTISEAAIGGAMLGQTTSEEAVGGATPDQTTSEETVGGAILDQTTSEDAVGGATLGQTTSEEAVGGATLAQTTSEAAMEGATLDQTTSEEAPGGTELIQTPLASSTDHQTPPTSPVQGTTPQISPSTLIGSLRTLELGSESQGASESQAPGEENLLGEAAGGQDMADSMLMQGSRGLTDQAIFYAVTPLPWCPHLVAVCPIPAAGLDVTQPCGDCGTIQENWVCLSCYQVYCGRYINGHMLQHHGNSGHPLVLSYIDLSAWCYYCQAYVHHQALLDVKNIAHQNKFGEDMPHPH
Description: as §1

HDAC8 = HDAC8 (Homo sapiens (Human), UniProt Q9BY41); assay: as above; details: read-out: HDAC Biochemical IC50 HDAC8
Chain of HDAC8 (Q9BY41 whole entry): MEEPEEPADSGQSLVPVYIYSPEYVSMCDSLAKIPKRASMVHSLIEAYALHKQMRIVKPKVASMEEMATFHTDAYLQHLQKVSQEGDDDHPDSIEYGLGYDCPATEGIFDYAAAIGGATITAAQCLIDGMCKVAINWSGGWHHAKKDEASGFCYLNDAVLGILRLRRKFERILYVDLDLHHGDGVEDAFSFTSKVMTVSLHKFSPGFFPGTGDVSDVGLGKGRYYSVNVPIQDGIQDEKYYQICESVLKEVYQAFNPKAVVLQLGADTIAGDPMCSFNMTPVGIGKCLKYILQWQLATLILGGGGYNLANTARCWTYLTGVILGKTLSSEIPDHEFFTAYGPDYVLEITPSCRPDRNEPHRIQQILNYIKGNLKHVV
Description: as §1

HDAC1 = HDAC1 (Homo sapiens (Human), UniProt Q13547); assay: as above; details: read-out: HDAC Biochemical IC50 HDAC1
Description: as §1

HDAC9 = HDAC9 (Homo sapiens (Human), UniProt Q9UKV0); assay: as above; details: read-out: HDAC Biochemical IC50 HDAC9
Description: as §1

HDAC7 = HDAC7 (Homo sapiens (Human), UniProt Q8WUI4); assay: as above; details: read-out: HDAC Biochemical IC50 HDAC7
Chain of HDAC7 (Q8WUI4 whole entry): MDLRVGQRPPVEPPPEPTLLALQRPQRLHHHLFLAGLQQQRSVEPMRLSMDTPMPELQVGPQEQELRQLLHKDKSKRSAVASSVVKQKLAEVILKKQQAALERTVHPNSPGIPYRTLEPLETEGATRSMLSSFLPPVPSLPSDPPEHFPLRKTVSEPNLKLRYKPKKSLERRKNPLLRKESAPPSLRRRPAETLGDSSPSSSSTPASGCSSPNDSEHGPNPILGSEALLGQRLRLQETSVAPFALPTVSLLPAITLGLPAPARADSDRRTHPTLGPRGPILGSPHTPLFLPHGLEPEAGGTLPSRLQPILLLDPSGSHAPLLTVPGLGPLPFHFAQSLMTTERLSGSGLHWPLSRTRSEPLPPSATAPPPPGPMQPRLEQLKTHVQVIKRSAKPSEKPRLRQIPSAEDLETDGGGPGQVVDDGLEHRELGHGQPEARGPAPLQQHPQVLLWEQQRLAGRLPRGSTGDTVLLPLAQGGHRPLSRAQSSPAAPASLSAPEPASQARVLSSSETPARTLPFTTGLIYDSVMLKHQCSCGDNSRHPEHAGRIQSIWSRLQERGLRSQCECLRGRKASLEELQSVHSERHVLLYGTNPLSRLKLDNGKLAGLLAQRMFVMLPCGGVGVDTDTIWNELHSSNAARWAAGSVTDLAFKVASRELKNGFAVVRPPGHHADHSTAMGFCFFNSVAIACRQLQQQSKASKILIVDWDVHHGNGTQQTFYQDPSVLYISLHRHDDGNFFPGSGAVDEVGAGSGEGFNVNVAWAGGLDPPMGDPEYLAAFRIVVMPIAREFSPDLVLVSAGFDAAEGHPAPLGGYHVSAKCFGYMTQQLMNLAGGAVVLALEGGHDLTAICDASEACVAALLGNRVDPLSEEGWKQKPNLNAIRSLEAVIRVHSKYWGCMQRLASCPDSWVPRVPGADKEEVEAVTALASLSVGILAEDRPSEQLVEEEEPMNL
Description: as §1

HDAC2 = HDAC2 (Homo sapiens (Human), UniProt Q92769); assay: as above; details: read-out: HDAC Biochemical IC50 HDAC2
Description: as §1

HDAC10 = HDAC10 (Homo sapiens (Human), UniProt Q969S8); assay: as above; details: read-out: HDAC Biochemical IC50 HDAC10
Description: as §1

[3] = biological target: HDAC3 co-expressed with nuclear receptor corepressor (Ncor2) (Homo sapiens (Human), UniProt O15379); assay: as above; details: read-out: HDAC Biochemical IC50 HDAC3
Description: as §1

Chain of HDAC11 (Q96DB2 whole entry): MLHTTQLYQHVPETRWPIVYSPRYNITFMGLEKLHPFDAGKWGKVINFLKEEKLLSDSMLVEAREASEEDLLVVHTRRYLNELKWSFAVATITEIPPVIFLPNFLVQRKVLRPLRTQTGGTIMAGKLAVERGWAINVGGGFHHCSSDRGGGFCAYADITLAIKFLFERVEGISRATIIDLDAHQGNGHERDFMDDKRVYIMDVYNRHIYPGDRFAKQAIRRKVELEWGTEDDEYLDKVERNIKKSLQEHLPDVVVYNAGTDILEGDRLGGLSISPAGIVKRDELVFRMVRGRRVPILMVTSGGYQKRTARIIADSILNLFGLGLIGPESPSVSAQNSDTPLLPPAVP

SMILES	selectivity over HDACs 1-10 (HDAC11) [fold]	IC50 (HDAC11) [µM]	growth of stem-like cancer cells (sphere formation) [1]	growth of stem-like cancer cells (sphere formation) [2]	IC50 (HDAC4) [µM]	IC50 (HDAC5) [µM]	IC50 (HDAC6) [µM]	IC50 (HDAC8) [µM]	IC50 (HDAC1) [µM]	IC50 (HDAC9) [µM]	IC50 (HDAC7) [µM]	IC50 (HDAC2) [µM]	IC50 (HDAC10) [µM]	IC50 [3] [µM]
O=C(NO)c1cccc2c1C[C@]1(CCN(Cc3ccc(Cl)c(C(F)(F)F)c3)C1=O)C2 [HDTK054, (S)-1′-(4-chloro-3-(trifluoromethyl)benzyl)-N-hydroxy-2′-oxo-1,3-dihydrospiro[indene-2,3′-pyrrolidine]-4-carboxamide]	> 200	0.01 to 0.05	prevented growth	prevented growth	> 10	> 10	> 10	5 to 10	> 10	> 10	> 10	> 10	> 10	> 10
O=C(NO)c1cccc(Nc2nc3cc(Cl)c(Cl)cc3o2)c1 [HDTK010, 3-((5,6-dichlorobenzo[d]oxazol-2-yl)amino)-N-hydroxybenzamide]	> 200	0.001 to 0.005	prevented growth	prevented growth	> 10	> 10	0.5 to 1	0.5 to 1	> 10	> 10	5 to 10	> 10	> 10	> 10
